Experimental data reported in patent publication US20100267561A1, “HERBICIDAL PYRIDAZINONE DERIVATIVES” (priority 2007, published 2010).

Assays:
Test in all cases: Test B pre-/postemergence plant response
Assay type in all cases: in vivo
[1] = system: corn (Zea mays)
From the text: (§1) Seeds of plant species selected from blackgrass (Alopecurus myosuroides), downy bromegrass (Bromus tectorum), green foxtail (Setaria viridis), Italian ryegrass (Lolium multiflorum), wheat (Triticum aestivum), wild oat (Avena fatua), catchweed bedstraw (Galium aparine), bermudagrass (Cynodon dactylon), surinam grass (Brachiaria decumbens), cocklebur (Xanthium strumarium), corn (Zea mays), large crabgrass (Digitaria sanguinalis), woolly cupgrass (Eriochloa villosa), giant foxtail (Setaria faberii), goosegrass (Eleusine indica), johnsongrass (Sorghum halepense), kochia (Kochia scoparia), lambsquarters (Chenopodium album), morningglory (Ipomoea coccinea), eastern black (E.B.) nightshade (Solanum ptycanthum), yellow nutsedge (Cyperus esculentus), pigweed (Amaranthus retroflexus), common ragweed (Ambrosia elation), Russian thistle (Salsola iberica), soybean (Glycine max), common (oilseed) sunflower (Helianthus annuus), and velvetleaf (Abutilon theophrasti) were planted and treated preemergence with test chemicals formulated in a non-phytotoxic solvent mixture which included a surfactant.
(§2) At the same time, plants selected from these crop and weed species and also winter barley (Hordeum vulgare), canarygrass (Phalaris minor), chickweed (Stellaria media) and windgrass (Apera spica-venti) were treated with postemergence applications of some of the test chemicals formulated in the same manner. Plants ranged in height from 2 to 18 cm (1- to 4-leaf stage) for postemergence treatments.
(§3) Plant species in the flooded paddy test consisted of rice (Oryza sativa), umbrella sedge (Cyperus difformis), ducksalad (Heteranthera limosa) and barnyardgrass (Echinochloa crus-galli) grown to the 2-leaf stage for testing. At time of treatment, test pots were flooded to 3 cm above the soil surface, treated by application of test compounds directly to the paddy water, and then maintained at that water depth for the duration of the test. Treated plants and controls were maintained in a greenhouse for 13 to 15 days, after which time all species were compared to controls and visually evaluated. Plant response ratings, summarized in Table B, are based on a scale of 0 to 100 where 0 is no effect and 100 is complete control. A dash (-) response means no test result.

[2] = system: downy bromegrass (Bromus tectorum)
From the text: as §1, §2, §3

[3] = system: eastern black (E.B.) nightshade (Solanum ptycanthum); conditions: Preemergence
From the text: as §1, §2, §3

[4] = system: green foxtail (Setaria viridis)
From the text: as §1, §2, §3

[5] = system: wild oat (Avena fatua)
From the text: as §1, §2, §3

[6] = system: common ragweed (Ambrosia elation)
From the text: as §1, §2, §3

[7] = system: yellow nutsedge (Cyperus esculentus)
From the text: as §1, §2, §3

[8] = system: common (oilseed) sunflower (Helianthus annuus); conditions: Preemergence
From the text: as §1, §2, §3

[9] = system: surinam grass (Brachiaria decumbens)
From the text: as §1, §2, §3

[10] = system: cocklebur (Xanthium strumarium)
From the text: as §1, §2, §3

[11] = system: blackgrass (Alopecurus myosuroides)
From the text: as §1, §2, §3

[12] = system: Russian thistle (Salsola iberica); conditions: Preemergence
From the text: as §1, §2, §3

[13] = system: wheat (Triticum aestivum)
From the text: as §1, §2, §3

[14] = system: woolly cupgrass (Eriochloa villosa)
From the text: as §1, §2, §3

[15] = Postemergence, 31 g ai/ha, scale 0 to 100, 0 no effect, 100 complete control
[16] = Postemergence, 62 g ai/ha, scale 0 to 100
[17] = Postemergence, 125 g ai/ha, scale 0 to 100
[18] = Preemergence, 31 g ai/ha, 0 to 100 scale, 0 no effect, 100 complete control
[19] = Preemergence, 62 g ai/ha, scale 0 to 100
[20] = Preemergence, 125 g ai/ha, scale 0 to 100
[21] = Preemergence, 250 g ai/ha, scale 0 to 100
[22] = Postemergence, 250 g ai/ha, scale 0 to 100
[23] = 31 g ai/ha, 0 to 100 scale, 0 no effect, 100 complete control

Cc1nn(C)c(=O)c(-n2nc(-c3ccc(Cl)cc3)cc2C)c1O [Compound 15]
Plant response rating, Corn [1, 15]: 90
Plant response rating, Corn [1, 16]: 95
Plant response rating, Corn [1, 17]: 95
Plant response rating, Corn [1, 18]: 50
Plant response rating, Corn [1, 19]: 98
Plant response rating, Corn [1, 20]: 100
Plant response rating, Corn [1, 21]: 100
Plant response rating, Bromegrass, Downy [2, 15]: 10
Plant response rating, Bromegrass, Downy [2, 16]: 15
Plant response rating, Bromegrass, Downy [2, 17]: 45
Plant response rating, Bromegrass, Downy [2, 22]: 60
Plant response rating, Bromegrass, Downy [2, 18]: 50
Plant response rating, Bromegrass, Downy [2, 19]: 55
Plant response rating, Bromegrass, Downy [2, 20]: 90
Plant response rating, Bromegrass, Downy ([2]; Preemergence, 250 g ai/ha, scale 0 to 100 (0 no effect, 100 complete control)): 98
Plant response rating, Nightshade, E. B. [3, 23]: 0
Plant response rating, Nightshade, E. B. ([3]; 62 g ai/ha, scale 0 to 100): 0
Plant response rating, Nightshade, E. B. ([3]; 125 g ai/ha, scale 0 to 100): 0
Plant response rating, Nightshade, E. B. ([3]; 250 g ai/ha, scale 0 to 100): 0
Plant response rating, Foxtail, Green [4, 15]: 95
Plant response rating, Foxtail, Green [4, 16]: 95
Plant response rating, Foxtail, Green [4, 17]: 100
Plant response rating, Foxtail, Green [4, 22]: 100
Plant response rating, Foxtail, Green [4, 18]: 100
Plant response rating, Foxtail, Green [4, 19]: 100
Plant response rating, Foxtail, Green [4, 20]: 100
Plant response rating, Foxtail, Green [4, 21]: 100
Plant response rating, Oat, Wild [5, 15]: 95
Plant response rating, Oat, Wild [5, 16]: 98
Plant response rating, Oat, Wild [5, 17]: 98
Plant response rating, Oat, Wild [5, 22]: 100
Plant response rating, Oat, Wild [5, 18]: 10
Plant response rating, Oat, Wild [5, 19]: 70
Plant response rating, Oat, Wild [5, 20]: 80
Plant response rating, Oat, Wild [5, 21]: 85
Plant response rating, Ragweed [6, 15]: 0
Plant response rating, Ragweed [6, 16]: 0
Plant response rating, Ragweed [6, 17]: 0
Plant response rating, Ragweed [6, 22]: 40
Plant response rating, Ragweed [6, 18]: 0
Plant response rating, Ragweed [6, 19]: 0
Plant response rating, Ragweed [6, 20]: 0
Plant response rating, Ragweed [6, 21]: 0
Plant response rating, Nutsedge, Yellow [7, 16]: 0
Plant response rating, Nutsedge, Yellow [7, 17]: 0
Plant response rating, Nutsedge, Yellow [7, 22]: 0
Plant response rating, Nutsedge, Yellow [7, 18]: 0
Plant response rating, Nutsedge, Yellow [7, 19]: 0
Plant response rating, Nutsedge, Yellow [7, 21]: 0
Plant response rating, Sunflower [8, 23]: 0
Plant response rating, Sunflower ([8]; 62 g ai/ha, scale 0 to 100): 0
Plant response rating, Sunflower ([8]; 250 g ai/ha, scale 0 to 100): 60
Plant response rating, Surinam Grass [9, 15]: 100
Plant response rating, Surinam Grass [9, 16]: 100
Plant response rating, Surinam Grass [9, 17]: 100
Plant response rating, Surinam Grass [9, 22]: 100
Plant response rating, Surinam Grass [9, 18]: 100
Plant response rating, Surinam Grass [9, 19]: 100
Plant response rating, Surinam Grass [9, 20]: 100
Plant response rating, Surinam Grass [9, 21]: 100
Plant response rating, Cocklebur [10, 15]: 0
Plant response rating, Cocklebur [10, 16]: 0
Plant response rating, Cocklebur [10, 17]: 0
Plant response rating, Cocklebur [10, 22]: 0
Plant response rating, Cocklebur [10, 18]: 0
Plant response rating, Cocklebur [10, 19]: 0
Plant response rating, Cocklebur [10, 20]: 0
Plant response rating, Cocklebur [10, 21]: 10
Blackgrass plant response rating ([11]; 250 g ai/ha, preemergence, 0-100 scale): 100
Plant response rating, Blackgrass [11, 15]: 90
Plant response rating, Blackgrass [11, 16]: 95
Plant response rating, Blackgrass [11, 17]: 95
Plant response rating, Blackgrass [11, 22]: 98
Plant response rating, Blackgrass [11, 18]: 100
Plant response rating, Blackgrass [11, 19]: 100
Plant response rating, Blackgrass [11, 20]: 100
Plant response rating, Russian Thistle [12, 23]: 0
Plant response rating, Russian Thistle ([12]; 250 g ai/ha, scale 0 to 100): 80
Plant response rating, Wheat [13, 15]: 5
Plant response rating, Wheat [13, 16]: 60
Plant response rating, Wheat [13, 17]: 70
Plant response rating, Wheat [13, 22]: 85
Plant response rating, Wheat [13, 18]: 0
Plant response rating, Wheat [13, 19]: 60
Plant response rating, Wheat [13, 20]: 60
Plant response rating, Wheat [13, 21]: 80
Plant response rating, Cupgrass, Woolly [14, 16]: 100
Plant response rating, Cupgrass, Woolly [14, 17]: 100
Plant response rating, Cupgrass, Woolly [14, 22]: 100
Plant response rating, Cupgrass, Woolly [14, 18]: 60
Plant response rating, Cupgrass, Woolly [14, 19]: 85
Plant response rating, Cupgrass, Woolly [14, 20]: 90
Plant response rating, Cupgrass, Woolly [14, 21]: 98
